Columns and labels:
[1] = test system: confluent monolayer of HUVECs; test: PM-ECIS resistance (4 kHz) response to EGTA and thrombin barrier disruption, 250/500/750 μm electrodes; format: cell-based, human; settings: all electrode sizes
Source text: The PM-ECIS devices were connected to a 24-channel multiplexer, which in turn connected to a phase-sensitive lock-in amplifier (LIA) and computer (FIG. 9D), The overall circuit for the ECIS system follows the set up described by Giaever and Keese. The LIA acts to both generate an alternating current signal, and receive signal measured across the cell layer. An alternating current signal of 1 V rms was generated at a specified frequency, connected to a 1 MΩ resistor to provide a 1 μA current. Cell-free devices were filled with culture medium and measurements taken over at least 12 hours to establish baseline impedance. The voltage drop across the device containing cells grown on electrodes was detected and measured by the LIA, which allows for small AC signals to be resolved in high noise systems. A cell-free baseline was established beforehand using cell-free devices filled with culture medium and impedance measurements taken over the course of at least 12 hours prior to cell seeding. LIA outputs including voltage drop and phase angle were used to calculate and plot impedance and resistance values.
Cells were incubated in 5 mM EGTA (Sigma-Aldrich, E3889) diluted in Endothelial Growth Medium at 37° C. and 5% CO2 for 2 hours, with ECIS measurements taken every 15 min. After 2 hours, EGTA was removed and replaced with fresh growth medium. For transient disruption of the endothelial barrier, cells were stimulated with 1 U/mL of thrombin from bovine plasma (Sigma-Aldrich, T6634) diluted in Endothelial Growth Medium at 37° C. and 5% CO2 for 2 hours, with measurements taken every 5 min.
To assess the effect of electrode size in PM-ECIS response to barrier disruption, a confluent monolayer of HUVECs was subjected to 2-hour treatment with EGTA. EGTA disrupts cell barriers by chelating Ca2+ ions to destabilize tight junctions. […]

HUVEC monolayers = test: PM-ECIS resistance of HUVEC monolayers on 6-well inserts after thrombin barrier disruption; format: cell-based, human; settings: 1 U/mL thrombin in fresh media, HUVECs, 6-well PM-ECIS
Protocol: A lock-in amplifier (LIA) (SR850, Stanford Research Systems) was used to simultaneously generate AC current and read impedance data from the devices. An Arduino-operated multiplexer was used to switch between devices. Using a 1 V rms input voltage, in series with a 1 MΩ resistor, electrodes (typ. 500 μm dia.) were stimulated at frequencies of 400, 4000 and 40000 Hz, and any voltage drops (at the locked frequencies) across the electrodes were sampled with the LIA every 15 or 60 mins. Prior to use, the devices without cells were left in media for at least 12 hours to record a stable cell-free impedance baseline for each electrode at each frequency.
Cell barrier resistance (Rb), capacitance (Cm), and basal barrier beneath the cells (a) were modeled and calculated using ECIS Core software (Applied Biophysics, v1.2.215.0 PC) using the raw impedance values taken at 400, 4000, and 40000 Hz.

| Compound | time to drop in resistance after treatment ([1]; 5 mM EGTA, 4 kHz) | change in 4 kHz PM-ECIS resistance after addition of thrombin (HUVEC monolayers) | change in resistance after thrombin treatment ([1]; 1 U/mL thrombin, 4 kHz) | time for resistances to return to or close to pre-treatment values ([1]; 1 U/mL thrombin) |
| --- | --- | --- | --- | --- |
| O=C(O)CN(CCOCCOCCN(CC(=O)O)CC(=O)O)CC(=O)O [EGTA, ethylene glycol-bis(β-aminoethyl ether)-N,N,N′,N′-tetraacetic acid] | ≤ 15 min | – | – | – |
| thrombin: thrombin from bovine plasma (Sigma), used to disrupt cell-cell junctions | – | acute resistance drop | immediate drop in resistance | ≤ 120 min |

— patent US20250013155A1, “MICROFLUIDIC POROUS MEMBRANE ELECTRICAL CELL-SUBSTRATE IMPEDANCE SENSING” (THE GOVERNING COUNCIL OF THE UNIVERSITY OF TORONTO, priority 2023, published 2025)
